Legend:
[1] = system: PcaU1.2; assay: Specificity evaluation of PcaU1.2 sensor against similar aromatic molecules; type: cell-based, P. putida; conditions: relative to PCA response
Experimental: For specificity evaluation of the biosensor, PcaU1.2 was tested against molecules with similar functional groups, namely benzoate, 4-hydroxybenzoate (4HB), and catechol. The tested molecules were relatively smaller than PCA, to eliminate any rejection of the molecule from the binding pocket due to steric hindrance.

[2] = system: PobR-DM; assay: Whole cell biosensing of 4HB and benzoate with PobR-DM sensor plasmid; type: cell-based; conditions: P. putida with pPobR
Experimental: Whole cell biosensing of 4HB and benzoate: For 4HB sensing activity of the whole cell biosensor, a small scoop of pPobR transformed P. putida cells from a streaked plate or a glycerol stock was grown overnight as a seed culture. The overnight saturated seed culture was then diluted 100-fold in fresh growth medium, grown for 5-6 h at 30° C. to achieve an OD600 of ˜0.6, then distributed in deep 96-well blocks in a volume of 300-500 μL and induced with varying concentrations of 4HB or benzoate. The cultures were grown overnight (14-16 h) under vigorous shaking in a deep-well shaker (Taitec BioShakerM-BR-022UP). The cultures were diluted 100-fold in phosphate-buffered saline (PBS) with 1% sucrose and analyzed using an LSR II flow cytometer (BD Biosciences) or Accuri C6 flow cytometer (BD Biosciences) with standard settings for measurement of GFP fluorescence (ex 488 nm, em ˜530/30 nm). The arithmetic mean fluorescence value of ˜100,000 cells tightly gated based on forward and side scatter (FSC vs SSC) was used for a dose-response plot. Same protocol was followed for comparison of UbiC clones.

[3] = target: UbiC (Escherichia coli, UniProt P26602); conditions: cited from earlier work
UbiC, sequence (P26602 whole entry): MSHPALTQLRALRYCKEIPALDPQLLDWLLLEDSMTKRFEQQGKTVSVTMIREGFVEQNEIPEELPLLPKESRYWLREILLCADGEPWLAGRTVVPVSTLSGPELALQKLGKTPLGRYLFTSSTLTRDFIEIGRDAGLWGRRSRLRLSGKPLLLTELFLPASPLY

[4] = system: PobR-DM; conditions: protocatechuate only at 1000-fold greater concentration than 4HB; cited from earlier work

SMILES	activation of the PcaU1.2 sensor [1]	response of the PobR-DM sensor in E. coli [4]	other results
O=C(O)c1ccc(O)cc1 [4HB, 4-hydroxybenzoic acid]	Low but measurable activation		
O=C(O)c1ccccc1 [benzoate]	Low but measurable activation		response of the whole cell 4HB biosensor [2]: did not show any response; Ki ([3]; inhibitor of UbiC): > 3 mM; affinity weaker / Kp higher than 4HB ([3]; product inhibition of UbiC): 1000 fold
Oc1ccccc1O [catechol]	a signal that was an appreciable fraction of PCA response		
O=[N+]([O-])c1ccc(O)cc1 [p-nitrophenol]		does not respond	
O=C(O)c1ccc(O)c(O)c1 [protocatechuate, 3,4-dihydroxybenzoate]		very weakly responds	

— patent US11739318B1, “Modified biosensors and biocatalysts and methods of use” (priority 2017, dated 2023)
